Molecules are shown by their SMILES. *1 amine or outer side, *2 acyl side, *3 side chain or, on linkers, in order; H or OH if unused. Where a SMILES comes first, the peptide text is derived from it. Bridges are numbered along the chain shown (N, C = ends). [ ]: non-standard residue; d: D form. The star is where a group is joined. ξ: configuration not given here. X18 = NN([C@@H](Cc1cccc(Cl)c1)C(=O)[*:2])[*:1]; NMePhe(3-Cl) = CN[C@@H](Cc1cccc(Cl)c1)C(=O)O; Propyl(2,2-Me2,3-OH) = CC(C)(CO)C*; NMeF = CN[C@@H](Cc1ccccc1)C(=O)O; NMeGABA = CN(CCCC(=O)[*:2])[*:1]; NMeL = CN[C@@H](CC(C)C)C(=O)O; Butyl(3R-OH) = C[C@@H](O)CC*; Butyl(3S-OH) = C[C@H](O)CC*; NMeV = CN[C@H](C(=O)O)C(C)C; NMeAbu = CC[C@H](NC)C(=O)O; NMeA = CN[C@@H](C)C(=O)O; Piperidide = C1CCN(*)CC1; dAbu = CC[C@@H](N)C(=O)O; NBuGly = CCCCNCC(=O)O; ξV = CC(C)C(N)C(=O)O; ξS = NC(CO)C(=O)O; Sar = CNCC(=O)O; tBu = CC(C)(C)*

The nature of this data set: in vitro. The conditions noted are these: human, Caco-2, Caco-2 (cm/sec).
Consider `CC(C)C[C@H]1C(=O)N[C@@H]([C@@H](C)O)C(=O)N(C)[C@@H](CC(C)C)C(=O)N(C)[C@@H](CC(C)C)C(=O)N[C@H](C(=O)N2CCCCC2)CC(=O)N(C)CCCC(=O)N(C)[C@@H](C(C)C)C(=O)NC(COCC[C@H](C)O)C(=O)N(C)[C@@H](Cc2ccccc2)C(=O)N(C)[C@@H](Cc2cccc(Cl)c2)C(=O)N[C@@H](COC(C)(C)C)C(=O)N1C` (stereo partly drawn) [AP101] ([NMeGABA][NMeV][ξS](Butyl(3S-OH))[NMeF][NMePhe(3-Cl)]S(tBu)[NMeL]T[NMeL][NMeL]D-Piperidide; lactam N-11), for which the Papp (in general, a coefficient for how fast a substance crosses the barrier) came to 0.59 ×10⁻⁶ cm/s.
Then `CC(C)C[C@H]1C(=O)N[C@@H](C(C)C)C(=O)N(C)[C@@H](Cc2ccccc2)C(=O)N(C)[C@@H](Cc2cccc(Cl)c2)C(=O)NC(COCC[C@H](C)O)C(=O)N(C)[C@@H](CC(C)C)C(=O)N[C@@H]([C@@H](C)O)C(=O)N(C)[C@@H](CC(C)C)C(=O)N(C)[C@@H](CC(C)C)C(=O)N[C@H](C(=O)N2CCCCC2)CC(=O)N(C)CCCC(=O)N1C` (stereo partly drawn) [AP102] ([NMeGABA][NMeL]V[NMeF][NMePhe(3-Cl)][ξS](Butyl(3S-OH))[NMeL]T[NMeL][NMeL]D-Piperidide; lactam N-11), with 0.43 ×10⁻⁶ cm/s.
Regarding `CCCCN1CC(=O)N(C)[C@@H](CC(C)C)C(=O)N[C@H](C(=O)N2CCCCC2)CC(=O)N(C)[C@@H](C)C(=O)N[C@@H](COCC[C@H](C)O)C(=O)N(C)[C@@H](CC(C)C)C(=O)N(C)[C@@H](Cc2cccc(Cl)c2)C(=O)N[C@@H](CC(C)C)C(=O)N(C)[C@@H](Cc2ccccc2)C(=O)N(C)[C@@H](C(C)C)C(=O)N[C@@H]([C@@H](C)O)C1=O` [AP103] ([NMeA]S(Butyl(3S-OH))[NMeL][NMePhe(3-Cl)]L[NMeF][NMeV]T[NBuGly][NMeL]D-Piperidide; lactam N-11), the Papp came out at 0.89 ×10⁻⁶ cm/s.
The result for `CCCCN1CC(=O)N(C)[C@@H](Cc2ccccc2)C(=O)N(C)[C@@H](C(C)C)C(=O)N[C@@H](COC(C)(C)C)C(=O)N(C)[C@@H](CC(C)C)C(=O)N[C@H](C(=O)N2CCCCC2)CC(=O)N(C)CC(=O)N(N)[C@@H](Cc2cccc(Cl)c2)C(=O)N[C@@H](COCC[C@H](C)O)C(=O)N(C)[C@@H](CC(C)C)C(=O)N[C@@H]([C@@H](C)O)C1=O` [AP105] ([Sar][X18]S(Butyl(3S-OH))[NMeL]T[NBuGly][NMeF][NMeV]S(tBu)[NMeL]D-Piperidide; lactam N-11) reads 0.55 ×10⁻⁶ cm/s; that for `CCCCN1CC(=O)N(C)[C@@H](Cc2cccc(Cl)c2)C(=O)N(C)[C@@H](CC(C)C)C(=O)N[C@@H](COCC[C@H](C)O)C(=O)N(C)[C@@H](CC(C)C)C(=O)N[C@H](C(=O)N2CCCCC2)CC(=O)N(C)CC(=O)N(C)[C@@H](Cc2ccccc2)C(=O)N[C@@H](C(C)C)C(=O)N(C)[C@@H](CC(C)C)C(=O)N[C@@H]([C@@H](C)O)C1=O` [AP106] ([Sar][NMeF]V[NMeL]T[NBuGly][NMePhe(3-Cl)][NMeL]S(Butyl(3S-OH))[NMeL]D-Piperidide; lactam N-11), 0.25 ×10⁻⁶ cm/s.
The result for `CCCCN1CC(=O)N(C)[C@@H](C(C)C)C(=O)N[C@@H](COC(C)(C)C)C(=O)N(C)[C@@H](Cc2ccccc2)C(=O)N(C)[C@@H](CC(C)C)C(=O)N[C@H](C(=O)N2CCCCC2)CC(=O)N[C@H](C(C)C)C(=O)N(C)[C@@H](Cc2ccccc2)C(=O)N[C@@H](COCC[C@@H](C)O)C(=O)N(C)[C@@H](CC(C)C)C(=O)N[C@@H]([C@@H](C)O)C1=O` [AP108] ([dV][NMeF]S(Butyl(3R-OH))[NMeL]T[NBuGly][NMeV]S(tBu)[NMeF][NMeL]D-Piperidide; lactam N-11) reads 0.81 ×10⁻⁶ cm/s.
The compound `CC(C)C[C@@H]1NC(=O)[C@H](Cc2ccccc2)N(C)C(=O)[C@@H](C(C)C)NC(=O)C[C@@H](C(=O)N2CCCCC2)NC(=O)[C@H](CC(C)C)N(C)C(=O)[C@H](Cc2cccc(Cl)c2)N(C)C(=O)[C@H](COCC[C@@H](C)O)NC(=O)[C@H](CC(C)C)N(C)C(=O)CN(C)C(=O)[C@H]([C@@H](C)O)NC(=O)[C@H](CC(C)C)N(C)C1=O` [AP109] ([dV][NMeF]L[NMeL]T[Sar][NMeL]S(Butyl(3R-OH))[NMePhe(3-Cl)][NMeL]D-Piperidide; lactam N-11) yielded a Papp of 0.64 ×10⁻⁶ cm/s.
As for `CC(C)C[C@H]1C(=O)N[C@@H]([C@@H](C)O)C(=O)N(C)[C@@H](CC(C)C)C(=O)N(C)[C@@H](CC(C)C)C(=O)N[C@H](C(=O)N2CCCCC2)CC(=O)N(C)CCCC(=O)N(C)[C@@H](C(C)C)C(=O)N[C@@H](COCC[C@@H](C)O)C(=O)N(C)[C@@H](Cc2ccccc2)C(=O)N(C)[C@@H](Cc2cccc(Cl)c2)C(=O)N[C@@H](COC(C)(C)C)C(=O)N1C` [AP110] ([NMeGABA][NMeV]S(Butyl(3R-OH))[NMeF][NMePhe(3-Cl)]S(tBu)[NMeL]T[NMeL][NMeL]D-Piperidide; lactam N-11), the Papp is 0.23 ×10⁻⁶ cm/s.
Then `CC(C)C[C@H]1C(=O)NC(C(C)C)C(=O)N(C)[C@@H](Cc2ccccc2)C(=O)N(C)[C@@H](Cc2cccc(Cl)c2)C(=O)N[C@@H](COCC[C@@H](C)O)C(=O)N(C)[C@@H](CC(C)C)C(=O)N[C@@H]([C@@H](C)O)C(=O)N(C)[C@@H](CC(C)C)C(=O)N(C)[C@@H](CC(C)C)C(=O)N[C@H](C(=O)N2CCCCC2)CC(=O)N(C)CCCC(=O)N1C` (stereo partly drawn) [AP111] ([NMeGABA][NMeL][ξV][NMeF][NMePhe(3-Cl)]S(Butyl(3R-OH))[NMeL]T[NMeL][NMeL]D-Piperidide; lactam N-11), with 0.13 ×10⁻⁶ cm/s; and `CCCCN1CC(=O)N(C)[C@@H](CC(C)C)C(=O)N[C@H](C(=O)N2CCCCC2)CC(=O)N(C)[C@@H](C)C(=O)N[C@@H](COCC[C@@H](C)O)C(=O)N(C)[C@@H](CC(C)C)C(=O)N(C)[C@@H](Cc2cccc(Cl)c2)C(=O)N[C@@H](CC(C)C)C(=O)N(C)[C@@H](Cc2ccccc2)C(=O)N(C)[C@@H](C(C)C)C(=O)N[C@@H]([C@@H](C)O)C1=O` [AP112] ([NMeA]S(Butyl(3R-OH))[NMeL][NMePhe(3-Cl)]L[NMeF][NMeV]T[NBuGly][NMeL]D-Piperidide; lactam N-11), with 0.73 ×10⁻⁶ cm/s; and `CCCCN1CC(=O)N(C)[C@@H](Cc2cccc(Cl)c2)C(=O)N(C)[C@@H](CC(C)C)C(=O)N[C@@H](COCC[C@@H](C)O)C(=O)N(C)[C@@H](CC(C)C)C(=O)N[C@H](C(=O)N2CCCCC2)CC(=O)N(C)CC(=O)N(C)[C@@H](Cc2ccccc2)C(=O)N[C@@H](C(C)C)C(=O)N(C)[C@@H](CC(C)C)C(=O)N[C@@H]([C@@H](C)O)C1=O` [AP114] ([Sar][NMeF]V[NMeL]T[NBuGly][NMePhe(3-Cl)][NMeL]S(Butyl(3R-OH))[NMeL]D-Piperidide; lactam N-11), with 0.28 ×10⁻⁶ cm/s.
The result for `CC(C)C[C@H]1C(=O)N[C@@H](COCC[C@@H](C)O)C(=O)N(C)[C@@H](Cc2ccccc2)C(=O)N(C)[C@@H](Cc2cccc(Cl)c2)C(=O)N[C@@H](COC(C)(C)C)C(=O)N(C)[C@@H](CC(C)C)C(=O)N[C@@H]([C@@H](C)O)C(=O)N(C)[C@@H](CC(C)C)C(=O)N(C)[C@@H](CC(C)C)C(=O)N[C@H](C(=O)N2CCCCC2)CC(=O)N(C)CCCC(=O)N1C` [AP115] ([NMeGABA][NMeL]S(Butyl(3R-OH))[NMeF][NMePhe(3-Cl)]S(tBu)[NMeL]T[NMeL][NMeL]D-Piperidide; lactam N-11) reads 0.27 ×10⁻⁶ cm/s.
On to `CCCCN1CC(=O)N(C)[C@@H](CC(C)C)C(=O)N[C@@H](COC(C)(C)C)C(=O)N(C)[C@@H](Cc2ccccc2)C(=O)N(C)[C@@H](CC(C)C)C(=O)N[C@H](C(=O)N2CCCCC2)CC(=O)N[C@H](CC)C(=O)N(C)[C@@H](Cc2ccccc2)C(=O)N[C@@H](COCC(C)(C)CO)C(=O)N(C)[C@@H](CC(C)C)C(=O)N[C@@H]([C@@H](C)O)C1=O` [AP117] ([dAbu][NMeF]S(Propyl(2,2-Me2,3-OH))[NMeL]T[NBuGly][NMeL]S(tBu)[NMeF][NMeL]D-Piperidide; lactam N-11), for which the Papp stood at 0.36 ×10⁻⁶ cm/s.
For `CC(C)C[C@@H]1NC(=O)[C@H](Cc2ccccc2)N(C)C(=O)[C@@H](C(C)C)NC(=O)C[C@@H](C(=O)N2CCCCC2)NC(=O)[C@H](CC(C)C)N(C)C(=O)[C@H](Cc2ccccc2)N(C)C(=O)[C@H](COCC(C)(C)CO)NC(=O)[C@H](CC(C)C)N(C)C(=O)CN(C)C(=O)[C@H]([C@@H](C)O)NC(=O)[C@H](CC(C)C)N(C)C1=O` [AP118] ([dV][NMeF]L[NMeL]T[Sar][NMeL]S(Propyl(2,2-Me2,3-OH))[NMeF][NMeL]D-Piperidide; lactam N-11), the Papp stood at 1.8 ×10⁻⁶ cm/s.
As to `CC[C@H](C)[C@@H]1NC(=O)[C@H](CC(C)C)N(C)C(=O)CCCN(C)C(=O)C[C@@H](C(=O)N2CCCCC2)NC(=O)[C@H](CC(C)C)N(C)C(=O)[C@H](CC(C)C)N(C)C(=O)[C@H]([C@@H](C)O)NC(=O)[C@H](CC(C)C)N(C)C(=O)[C@H](COCC(C)(C)CO)NC(=O)[C@H](Cc2ccccc2)N(C)C(=O)[C@H](Cc2ccccc2)N(C)C1=O` [AP120] ([NMeGABA][NMeL]I[NMeF][NMeF]S(Propyl(2,2-Me2,3-OH))[NMeL]T[NMeL][NMeL]D-Piperidide; lactam N-11), the Papp was determined as 1.1 ×10⁻⁶ cm/s.
The result for `CCCCN1CC(=O)N(C)[C@@H](CC(C)C)C(=O)N[C@H](C(=O)N2CCCCC2)CC(=O)N(C)[C@@H](C)C(=O)N[C@@H](COCC(C)(C)CO)C(=O)N(C)[C@@H](CC(C)C)C(=O)N(C)[C@@H](Cc2ccccc2)C(=O)N[C@@H](C(C)C)C(=O)N(C)[C@@H](Cc2ccccc2)C(=O)N(C)[C@@H](CC(C)C)C(=O)N[C@@H]([C@@H](C)O)C1=O` [AP121] ([NMeA]S(Propyl(2,2-Me2,3-OH))[NMeL][NMeF]V[NMeF][NMeL]T[NBuGly][NMeL]D-Piperidide; lactam N-11) reads 3.1 ×10⁻⁶ cm/s; that for `CC[C@H]1C(=O)N[C@@H](CC(C)C)C(=O)N(C)[C@@H](CC(C)C)C(=O)N(C)[C@@H](Cc2ccccc2)C(=O)NC(COCC(C)(C)CO)C(=O)N(C)[C@@H](Cc2ccccc2)C(=O)N(C)[C@@H](CC(C)C)C(=O)N[C@@H]([C@@H](C)O)C(=O)N(C)CC(=O)N(C)[C@@H](CC(C)C)C(=O)N[C@H](C(=O)N2CCCCC2)CC(=O)N1C` (stereo partly drawn) [AP122] ([NMeAbu]L[NMeL][NMeF][ξS](Propyl(2,2-Me2,3-OH))[NMeF][NMeL]T[Sar][NMeL]D-Piperidide; lactam N-11), 2.9 ×10⁻⁶ cm/s.
On to `CCCCN1CC(=O)N(C)[C@@H](Cc2ccccc2)C(=O)N(C)[C@@H](C(C)C)C(=O)N[C@@H](COC(C)(C)C)C(=O)N(C)[C@@H](CC(C)C)C(=O)N[C@H](C(=O)N2CCCCC2)CC(=O)N(C)CC(=O)N(C)[C@@H](Cc2cccc(Cl)c2)C(=O)N[C@@H](COCC(C)(C)CO)C(=O)N(C)[C@@H](CC(C)C)C(=O)N[C@@H]([C@@H](C)O)C1=O` [AP123] ([Sar][NMePhe(3-Cl)]S(Propyl(2,2-Me2,3-OH))[NMeL]T[NBuGly][NMeF][NMeV]S(tBu)[NMeL]D-Piperidide; lactam N-11), for which the Papp came out at 0.8 ×10⁻⁶ cm/s.

The values above are taken from US20230096766A1, “AMINO ACID HAVING FUNCTIONAL GROUP CAPABLE OF INTERMOLECULAR HYDROGEN BONDING, PEPTIDE COMPOUND CONTAINING SAME AND METHOD FOR PRODUCTION THEREOF” (Chugai Seiyaku Kabushiki Kaisha, priority 2018, published 2023).
